Patent EP4635969A1, “NOVEL GLUCOCORTICOID, METHOD FOR PREPARING SAME, AND USE THEREOF” (Tianjin Pharmaceutical Biotechnology Co., Ltd., priority 2022, dated 2024)

Tests used:
[1] = test system: intraocular pressure of guinea pigs; experiment: Adverse reactions of continuous ocular administration: intraocular pressure; assay type: in vivo
How it was run: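 Guinea pigs (300-350 g, both sexes) dosed bilaterally with 5 mg/5 mL ophthalmic suspensions, saline as blank; intraocular pressure measured before dosing and on days 7, 14, 21 and 28.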

[2] = test system: dry eye syndrome model New Zealand rabbits; experiment: Dry eye syndrome experiment (benzalkonium chloride model): tear film break-up time; assay type: in vivo, male New Zealand White rabbits; conditions: for tear film break-up time: compared with the model group
Procedure: Positive control drug: Fluorometholone Eye Drops (specification: 5 mL/5 mg; Santen Pharmaceutical (CHINA) Co., Ltd.; Lot No.: 1FM6625) was used as the positive control drug and stored at room temperature protected from light until use.
Thirty male New Zealand White rabbits (conventional grade) were prepared. Six rabbits were randomly selected as the blank control group, and the remaining animals were administered 0.1% benzalkonium chloride to the left eye twice daily (morning and evening) , 10 µL/animal each time. On day 6 of modeling, tear secretion was measured using phenol red cotton threads to determine whether the model was successfully established. […] During the administration, all animals except the blank control group were administered 10 µL of 0.1% benzalkonium chloride to the left eye once daily to maintain dry eye symptoms..
• Test time: D3, D7, D15; • Test animals: All animals were tested before grouping; all enrolled surviving animals were tested after administration; • Test method: 1% Fluorescein sodium was dropped onto the inner side of the rabbit's lower eyelid, 10 µL/animal. The rabbit's eyes were closed and gently massaged to evenly distribute the fluorescein sodium on the eye surface. The rabbit's eyes were then sequentially placed under a slit lamp. The tear film break-up time was observed and recorded as the time from eye opening to the appearance of the first dark spot. If no dark spot appeared, the time was calculated as 60 seconds.
The normality and homogeneity of variance were tested by Levene's test. If there was no statistical significance (P > 0.05), one-way analysis of variance (ANOVA) was used for statistical analysis. If ANOVA was statistically significant (P ≤ 0.05), LSD test (parametric method) was used for comparative analysis. If the variance was heterogeneous (P ≤ 0.05), Kruskal-Wallis test was used. If the Kruskal-Wallis test was statistically significant (P ≤ 0.05), Dunnett's test (nonparametric method) was used for comparative analysis.

[3] = test system: inflammatory bowel disease model rats; experiment: Inflammatory bowel disease experiment (TNBS model): macroscopic injury score of the colon; assay type: in vivo; conditions: for Macroscopic injury score: colon, day 5 after TNBS, 2 mg/kg once a day (compounds intraintestinally, dexamethasone by gavage); for inflammatory response on the intestinal surface / intestinal symptoms: compared with the model group
Procedure: Pharmacological Example 7: Pharmacodynamic Experiment on Inflammatory Bowel Disease in Rats
Test samples: The jet-milled compounds 23 and 34 were accurately weighed and prepared as 2 mg/mL clear solutions using anhydrous ethanol, respectively. The solutions were then diluted to 0.2 mg/mL with double-distilled water as the test samples, and stored at room temperature protected from light until use.
Animals in Groups 2 to 5 were subjected to trinitrobenzene sulfonic acid (TNBS) modeling as follows: A 5% TNBS aqueous solution was adjusted to 20 mg/mL TNBS (50% ethanol solution) with alcohol and water. After fasting for 24 h, the rats were anesthetized using an inhalation anesthesia machine. A silicone hose was inserted approximately 8 cm into the anus, and then TNBS was injected at a dose of 50 mg/kg. After injection, the rats were placed vertically for 1 min to prevent the backflow of TNBS solution. Then, the rats were placed into their cages for observation until the animals recovered.
Drug administration started one day before modeling, with one dose administered 1 hour before modeling and then once a day for 5 consecutive days. […] Table 14. Animal grouping and drug administration dosages
The experiment ended on day 5 after TNBS modeling. After isoflurane anesthesia, blood was collected from the hearts, and the rats were euthanized. The abdominal cavity was rapidly opened, and the macroscopic injury scoring of the colon in rats was performed based on the adhesion, obstruction, thickening of the colonic wall, colonic congestion, and necrosis in the colon area. After clearing the colonic contents, the colonic samples were longitudinally incised. The proximal 2/3 of the colon was excised, prepared into Swiss rolls, and stored in 4% neutral buffered formalin for histopathological analysis. Tissues were trimmed, dehydrated, paraffin-embedded, and sectioned (approximately 5 µm thickness), stained with hematoxylin-eosin (HE), and observed for pathological changes. Pathologists performed blind scoring of colonic lesions.
Quantitative indices were first subjected to Bartlett's test for homogeneity of variance. When the variance was homogeneous (P > 0.05), one-way analysis of variance (ANOVA) was used for a statistical test; if there was statistical significance (P ≤ 0.05), Dunnett's t-test (Dunnett method) was used to compare intergroup differences; if there was no statistical significance (P > 0.05), the statistical analysis was concluded. When the variance was heterogeneous (P ≤ 0.05), Kruskal-Wallis H rank-sum test (K-W method) was used for statistical analysis: if there was statistical significance (P ≤ 0.05), Mann-Whitney U test (M-W method) was further performed to compare intergroup differences; if there was no statistical significance (P > 0.05), the statistical analysis was concluded.

[4] = test system: dry eye syndrome model New Zealand rabbits; experiment: Dry eye syndrome experiment (benzalkonium chloride model): corneal fluorescein sodium staining; assay type: in vivo, male New Zealand White rabbits; conditions: for inflammatory response on the ocular surface / ocular symptoms: compared with the model group
[5] = D3, 1 mg/mL, 50 µL/eye, 3 times a day for 14 days
[6] = D7, 1 mg/mL, 50 µL/eye, 3 times a day for 14 days
[7] = D15, 1 mg/mL, 50 µL/eye, 3 times a day for 14 days

Row | Structure (SMILES) | intraocular pressure after continuous ocular administration [1] | Intraocular pressure of guinea pigs (mmHg) D0 ([1]; D0, before administration, 50 µL/eye (compounds and fluorometholone 1 mg/mL, loteprednol 5 mg/mL)) | Intraocular pressure of guinea pigs (mmHg) D7 ([1]; D7, 50 µL/eye (compounds and fluorometholone 1 mg/mL, loteprednol 5 mg/mL)) | Intraocular pressure of guinea pigs (mmHg) D14 ([1]; D14, 50 µL/eye (compounds and fluorometholone 1 mg/mL, loteprednol 5 mg/mL)) | Intraocular pressure of guinea pigs (mmHg) D21 ([1]; D21, 50 µL/eye (compounds and fluorometholone 1 mg/mL, loteprednol 5 mg/mL)) | Intraocular pressure of guinea pigs (mmHg) D28 ([1]; D28, 50 µL/eye (compounds and fluorometholone 1 mg/mL, loteprednol 5 mg/mL)) | Tear film break-up time (s) D3 [2, 5] | Tear film break-up time (s) D7 [2, 6] | Tear film break-up time (s) D15 [2, 7] | tear film break-up time [2] | Macroscopic injury score [3] | inflammatory response on the intestinal surface / intestinal symptoms [3] | Corneal fluorescein sodium staining score D3 [4, 5] | Corneal fluorescein sodium staining score D7 [4, 6] | Corneal fluorescein sodium staining score D15 [4, 7] | inflammatory response on the ocular surface / ocular symptoms [4]
1 | C[C@]12C=CC(=O)C=C1CC[C@H]1[C@@H]3C[C@H]4OC(c5ccc(CSC6CCOC6=O)cc5)O[C@@]4(C(=O)CO)[C@@]3(C)C[C@H](O)[C@@]12Cl (stereo partly drawn) [Compound 23, (6aS,6bR,7S,8aS,8bS,11aR,12aS,12bS)-6b-Chloro-7-hydroxy-8b-(2-hydroxyacetyl)-6a,8a-dimethyl-10-(4-(((2-oxotetrahydrofuran-3-yl)thio)methyl)phenyl)-1,2,6a,6b,7,8,8a,8b,11a,12,12a,12b-do decahydro-4H-naphtho[2',1':4,5]indeno[1,2-d][1,3]dioxol-4-one] | no abnormal intraocular pressure was observed | 13.5 ± 0.6 mmHg | 15.3 ± 1.7 mmHg | 15.3 ± 1.5 mmHg | 15.3 ± 2.2 mmHg | 14.9 ± 1.6 mmHg | 45.67 ± 13.69 s | 49.33 ± 8.91" s | 50.67 ± 10.41" s | significantly increased the tear film break-up time on day 15 | 4.83 ± 1.10" | significantly inhibited the inflammatory response on the intestinal surface | 2.17 ± 0.98 | 1.0 ± 0.98 | 1.0 ± 0.63" | significantly inhibited the inflammatory response on the ocular surface on day 15
2 | C[C@]12C=CC(=O)C=C1CC[C@H]1[C@@H]3C[C@H]4OC(c5ccc(CSC6COC(=O)C6)cc5)O[C@@]4(C(=O)CO)[C@@]3(C)C[C@H](O)[C@@]12Cl (stereo partly drawn) [Compound 26, (6aS,6bR,7S,8aS,8bS,11aR,12aS,12bS)-6b-Chloro-7-hydroxy-8b-(2-hydroxyacetyl)-6a,8a-dimethyl-10-(4-(((5-oxotetrahydrofuran-3-yl)thio)methyl)phenyl)-1,2,6a,6b,7,8,8a,8b,11a,12,12a,12b-do decahydro-4H-naphtho[2',1':4,5]indeno[1,2-d][1,3]dioxol-4-one] | no abnormal intraocular pressure observed |  |  |  |  |  |  |  |  | significantly increased the tear film break-up time |  | significantly alleviated the intestinal symptoms in inflammatory bowel disease model rats |  |  |  | significantly alleviated the ocular symptoms in dry eye syndrome model New Zealand rabbits
3 | C[C@]12C=CC(=O)C=C1[C@@H](F)C[C@H]1[C@@H]3C[C@H]4OC(c5ccc(CSC6CCOC6=O)cc5)O[C@@]4(C(=O)SCF)[C@@]3(C)C[C@H](O)[C@@]12F (stereo partly drawn) [Compound 34, S-(Fluoromethyl) (2S,6aS,6bR,7S,8aS,8bS,11aR,12aS,12bS)-2,6b-difluoro-7-hydroxy-6a,8a-dimethyl-4-oxo-10-(4-( ((2-oxotetrahydrofuran-3-yl)thio)methyl)phenyl)-1,2,4,6a,6b,7,8,8a,11a,12,12a,12b-dodecahydro-8bH-naphtho[2',1':4,5]indeno[1,2-d][1,3]dioxole-8b-carbothioate] | no abnormal intraocular pressure observed |  |  |  |  |  |  |  |  | significantly increased the tear film break-up time | 5.00 ± 0.95 | significantly inhibited the inflammatory response on the intestinal surface |  |  |  | significantly alleviated the ocular symptoms in dry eye syndrome model New Zealand rabbits
4 | C[C@]12C=CC(=O)C=C1[C@@H](F)C[C@H]1[C@@H]3C[C@H]4OC(c5ccc(CSC6CCOC6=O)cc5)O[C@@]4(C(=O)SCC#N)[C@@]3(C)C[C@H](O)[C@@]12F (stereo partly drawn) [Compound 35, S-(Cyanomethyl) (2S,6aS,6bR,7S,8aS,8bS,11aR,12aS,12bS)-2,6b-difluoro-7-hydroxy-6a,8a-dimethyl-4-oxo-10-(4-( ((2-oxotetrahydrofuran-3-yl)thio)methyl)phenyl)-1,2,4,6a,6b,7,8,8a,11a,12,12a,12b-dodecahydro-8bH-naphtho[2',1':4,5]indeno[1,2-d][1,3]dioxole-8b-carbothioate] | no abnormal intraocular pressure observed |  |  |  |  |  |  |  |  | significantly increased the tear film break-up time |  | significantly alleviated the intestinal symptoms in inflammatory bowel disease model rats |  |  |  | significantly alleviated the ocular symptoms in dry eye syndrome model New Zealand rabbits
5 | C[C@]12C=CC(=O)C=C1[C@@H](F)C[C@H]1[C@@H]3C[C@H]4OC(c5ccc(CSC6CCOC6=O)cc5)O[C@@]4(C(=O)OCF)[C@@]3(C)C[C@H](O)[C@@]12F (stereo partly drawn) [Compound 36, Fluoromethyl (2S,6aS,6bR,7S,8aS,8bS,11aR,12aS,12bS)-2,6b-difluoro-7-hydroxy-6a,8a-dimethyl-4-oxo-10-(4-( ((2-oxotetrahydrofuran-3-yl)thio)methyl)phenyl)-1,2,4,6a,6b,7,8,8a,11a,12,12a,12b-dodecahydro-8bH-naphtho[2',1':4,5]indeno[1,2-d][1,3]dioxole-8b-carboxylate] | no abnormal intraocular pressure observed |  |  |  |  |  |  |  |  | significantly increased the tear film break-up time |  | significantly alleviated the intestinal symptoms in inflammatory bowel disease model rats |  |  |  | significantly alleviated the ocular symptoms in dry eye syndrome model New Zealand rabbits
6 | C[C@]12C=CC(=O)C=C1[C@@H](F)C[C@H]1[C@@H]3C[C@H]4OC(c5ccc(CSC6CCOC6=O)cc5)O[C@@]4(C(=O)OCC#N)[C@@]3(C)C[C@H](O)[C@@]12F (stereo partly drawn) [Compound 37, Cyanomethyl (2S,6aS,6bR,7S,8aS,8bS,11aR,12aS,12bS)-2,6b-difluoro-7-hydroxy-6a,8a-dimethyl-4-oxo-10-(4-( ((2-oxotetrahydrofuran-3-yl)thio)methyl)phenyl)-1,2,4,6a,6b,7,8,8a,11a,12,12a,12b-dodecahydro-8bH-naphtho[2',1':4,5]indeno[1,2-d][1,3]dioxole-8b-carboxylate] | no abnormal intraocular pressure observed |  |  |  |  |  |  |  |  | significantly increased the tear film break-up time |  | significantly alleviated the intestinal symptoms in inflammatory bowel disease model rats |  |  |  | significantly alleviated the ocular symptoms in dry eye syndrome model New Zealand rabbits
